Columns and labels:
[1] = system: caspase-3 cognate target poly(ADP-ribose) polymerase (PARP); assay: Cellular activity: PARP cleavage immunoblot in cisplatin-treated RIF-1 cells; assay type: cell-based, murine; conditions: 15 min pre-incubation, cisplatin 100 μM 48 h
Description: The Δ-PARP immunoblot band corresponds to the endogenous 89 kDa large fragment of PARP resulting from caspase 3 cleavage. α-tubulin was used as a loading control.

[2] = In vivo biodistribution studies (Example 5); design: species or system C3H/hej mice; conditions: i.v., 2-60 min
Description: The stability of novel compound [^18F]11 and known compound [^125I]14 in plasma and liver was measured over time following administration in mice. [^18F]11 was injected intravenously into tumor-bearing mice and its tissue distribution was measured in selected tissues at 2, 15 and 60 min after injection. [^125I]14 was injected intravenously into non-tumour bearing mice and its tissue distribution was measured at selected time points from 2 to 60 minutes after injection. Furthermore, the in vivo metabolic stability of the radiotracer was determined from plasma and liver samples and, for [^18F]11, in urine samples.
The radiation-induced murine fibrosarcoma (RIF-1) tumour cells^20 were maintained in RPMI 1640 medium (Invitrogen Ltd, Paisley, UK) supplemented with 10% fetal calf serum (BioWhittaker Europe Ltd, Verviers, Belgium), 2 mM L-glutamine, 100 U/mL penicillin, 100 μg/mL streptomycin and 0.25 μg/mL fungizone (Gibco, UK) at 37° C. in a humidified incubator with 5% CO2. All animal work was done by licensed investigators in accordance with the United Kingdom's “Guidance on the Operation of Animals (Scientific Procedures) Act 1986” (HMSO, London, United Kingdom, 1990) and in full compliance with government regulations and guidelines on the welfare of animals in experimental neoplasia^21. Tumors were established in mice by subcutaneous injection of 5×10^5 cells on the back of male C3H/hej mice (Harlan, Bicester, Oxfordshire, UK). Tumour growth was monitored every two days using electronic callipers, and tumor volume estimated using the equation (π/6)×L×W×D (L=length, W=width and D=depth). Animals were selected for biodistribution studies of [^18F]11 when the tumors reached ˜100-150 mm^3; biodistribution of [^125I]14 was done in non-tumor-bearing mice.
Mice were injected intravenously via the lateral vein with 0.08-0.13 mL of radioactivity (˜0.37 MBq of [^125I]14 or 3.7 MBq of [^18F]11) dissolved in phosphate buffered saline. At selected times after injection (2-60 min) mice were sacrificed by exsanguination via cardiac puncture under general anesthesia (isofluorane inhalation). Aliquots of heparinised blood were rapidly centrifuged (2000 g for 5 minutes) to obtain plasma. The radioactivity contained in tissues was determined by gamma-counting on a Cobra II Auto-Gamma counter (Packard Instruments, Meriden, Conn., USA) and expressed as a percentage of injected dose per gram of tissue (% ID/g). A minimum of three mice was used for each time point. All animals were treatment-naïve.

PEO1 xenograft = assay: In vivo [^18F]11 biodistribution and PET imaging, PEO1 xenograft; design: species or system mice; conditions: for 60 min biodistribution, Bone / 60 min biodistribution, Kidney / 60 min biodistribution, L. Intestine / 60 min biodistribution, Liver / 60 min biodistribution, Lung / 60 min biodistribution, Muscle / 60 min biodistribution, S. Intestine / 60 min biodistribution, Spleen / 60 min biodistribution, Tumour: PEO1
Description: In vivo tumour models were established by subcutaneous injection of PEO1/4 (10×10^6 cells, with v/v matrigel, BD Biosciences, Oxford, UK), RIF-1 (5×10^5 cells) and LNM35 (1×10^6 cells) on the back of 6-8 weeks old female nu/nu-BALB/c or male C3H/hej mice (Harlan, Bicester, Oxfordshire, UK). Tumour growth was monitored every two days using electronic callipers, and tumour volume estimated using (π/6)×L×W×D (L=length, W=width and D=depth). All animal work was done by licensed investigators in accordance with the United Kingdom's “Guidance on the Operation of Animals (Scientific Procedures) Act 1986” (HMSO, London, United Kingdom, 1990) and in full compliance with government regulations and guidelines on the welfare of animals in experimental neoplasia.
For biodistribution studies, tumour-bearing mice were treated with 10 mg/kg cisplatin or vehicle for 24 h, anesthetized with isofluorane/O2/N2O and injected i.v. in the lateral tail vein with ˜100 μCi [^18F]11 for the indicated time. The different tissues were removed, weighted and placed in counting tubes for immediate Fluorine-18 radioactivity counting.
Tumour-bearing mice treated with Cisplatin (10 mg/kg for 24 h) or vehicle were scanned on a dedicated small animal PET scanner (quad-HIDAC; Oxford Positron Systems, Weston-on-the-Green, United Kingdom). Anesthetized animals were placed within a thermostatically controlled bed and positioned prone within the scanner. The bed was calibrated to provide a mouse rectal temperature of ˜37° C. A bolus injection of [^18F]11 (˜100 μCi) was given intravenously (i.v.) via the tail vein cannula and scanning commenced. Dynamic emission scans were acquired in list-mode format over 60 minutes. The acquired data were then sorted into 0.5-mm sinogram bins and 19 time frames (0.5×0.5×0.5 mm voxels; 4×15, 4×60, and 11×300 seconds) for image reconstruction, which was done by filtered back projection using a two-dimensional Hamming filter (cutoff 0.6). The image data-sets obtained were transferred to a SUN workstation (Ultra 10; SUN Microsystems, Santa Clara, Calif.) and visualized using the Analyze software (version 6.0; Biomedical Imaging Resource, Mayo Clinic, Rochester, Minn.). Cumulative images of the dynamic data composed of 0 to 1 minute after injection and 30 to 60 minutes after injection were used for visualization of radiotracer uptake and to define the regions of interest (ROI). The count densities were averaged for each ROI at each of the 19 time points to obtain a time versus radioactivity curve (TAC) for the ROIs. Tumour TAC was normalized to that of heart at each of the time points to obtain the normalized uptake value (NUV). The [^18F]9 data from […] were used as internal input function for normalizing tumour data. […] FRT is a useful variable in that it indicates the proportion of radiotracer delivered to the tumour that is retained. It therefore normalizes tumor [^18F]9 uptake to delivery.

In the case of `O=C1C(=O)N(Cc2cn(CCF)nn2)c2ccc(S(=O)(=O)N3CCC[C@H]3COc3ccc(F)cc3F)cc21` [Compound 11, (S)-1-((1-(2-Fluoroethyl)-1H-[1,2,3]-triazol-4-yl)methyl)-5-(2(2,4-difluorophenoxymethyl)-pyrrolidine-1-sulfonyl)isatin], the “effect on induction of cleaved PARP by cisplatin induced apoptosis” value [1] was “disrupted the induction of caspase-3 cognate target PARP by cisplatin induced apoptosis”.
For `O=C1C(=O)N(Cc2cn(CC[18F])nn2)c2ccc(S(=O)(=O)N3CCC[C@H]3COc3ccc(F)cc3F)cc21` [[^18F]11, (S)-1-((1-(2-Fluoroethyl)-1H-[1,2,3]-triazol-4-yl)methyl)-5-(2(2,4-difluorophenoxymethyl)-pyrrolidine-1-sulfonyl)isatin], the Bone uptake ([2]; RIF-1 tumor-bearing mice) was “low”, the “uptake in untreated tumors, heart and brain” value ([2]; RIF-1 tumor-bearing mice) was “low” and the “tissue distribution and elimination” value ([2]; mice) was “distributed rapidly to tissues and was also rapidly eliminated”. For the same compound, the “60 min biodistribution, Bone” value (PEO1 xenograft; CDDP treated) was 1.51 ± 1.02, the “60 min biodistribution, Bone” value (PEO1 xenograft; Control) was 0.64 ± 0.09 and the “PET image: uptake in the tumour” value (PEO1 xenograft; CDDP-treated mouse, PEO1 xenograft, 30-60 min) was “significant uptake”. For the same compound, the “60 min biodistribution, Kidney” value (PEO1 xenograft; CDDP treated) was 8.53 ± 3.64, the “60 min biodistribution, Kidney” value (PEO1 xenograft; Control) was 6.59 ± 1.94 and the “60 min biodistribution, L. Intestine” value (PEO1 xenograft; CDDP treated) was 3.24 ± 1.81. The “60 min biodistribution, L. Intestine” value (PEO1 xenograft; Control) was 1.81 ± 0.37, the “60 min biodistribution, Liver” value (PEO1 xenograft; CDDP treated) was 8.20 ± 2.09 and the “60 min biodistribution, Liver” value (PEO1 xenograft; Control) was 9.98 ± 2.51. For the same compound, the “60 min biodistribution, Lung” value (PEO1 xenograft; CDDP treated) was 4.90 ± 1.05, the “60 min biodistribution, Lung” value (PEO1 xenograft; Control) was 4.25 ± 0.57 and the “60 min biodistribution, Muscle” value (PEO1 xenograft; CDDP treated) was 1.34 ± 0.28. For the same compound, the “60 min biodistribution, Muscle” value (PEO1 xenograft; Control) was 0.98 ± 0.14, the “uptake in the tumour of CDDP treated vs control mice” value (PEO1 xenograft; PEO1 xenografts, 60 min) was “significant increased uptake” and the “60 min biodistribution, S. Intestine” value (PEO1 xenograft; CDDP treated) was 9.09 ± 5.82. The “60 min biodistribution, S. Intestine” value (PEO1 xenograft; Control) was 4.27 ± 0.78, the “60 min biodistribution, Spleen” value (PEO1 xenograft; CDDP treated) was 1.65 ± 0.22 and the “60 min biodistribution, Spleen” value (PEO1 xenograft; Control) was 1.19 ± 0.26. For the same compound, the “60 min biodistribution, Tumour” value (PEO1 xenograft; CDDP treated) was 2.96 ± 1.25 and the “60 min biodistribution, Tumour” value (PEO1 xenograft; Control) was 1.37 ± 0.25.

— patent US8961930B2, “Isatin derivatives for use as in vivo imaging agents” (Imperial Innovations Limited, priority 2008, dated 2015)
